Source: patent US10537541B2, “Treatment of focal segmental glomerular sclerosis (FSGS) using therapeutically effective oral doses of 10-nitro-9(E)-octadec-9-enoic acid” (Complexa, Inc., priority 2015, dated 2020)

Experiments:
[1] = tested on: deoxycorticosterone acetate (DOCA)/salt-induced model of FSGS; assay: DOCA salt study: serum and urine analyses; assay type: in vivo, mice (129/sv strain); details: DOCA/salt mice; for reduction in albuminuria: 2.5 mg/kg p.o. QD
Procedure: Induction of model: Male mice (129/sv strain) were purchased from Taconic Labs. The animals were uninephrectomized (Unx) at 6 weeks of age by the vendor and shipped one week after surgery. At 2 weeks post Unx, a DOCA or placebo pellet (21-day release pellets, 50 mg/pellet, Innovative Research of America, Sarasota, Fla.) was implanted s.c. All mice were then placed on a semisynthetic diet which contained a moderate fat content and a low phytoestrogen/anti-oxidant level, which approximates a normal human diet (4). A second DOCA or placebo pellet was implanted three weeks later. […] One percent NaCl in tap water was given to each group except the sham control group. Body weight was measured weekly, and doses were readjusted based on the current body weight. Urine and blood samples were collected prior to treatment and at week 2 and 4 of treatment. Mice were terminated at week 4. Data is presented as the mean+SEM for the number of animals listed in each group. Serum and urine analyses: Blood samples were collected from the retro-orbital sinus and samples were separated to serum. Serum and urine creatinine (enzymatic assay), blood urea nitrogen (BUN), and serum cholesterol were measured using a Cobas 400 plus bioanalyzer (Roche Diagnostics, IN). Urine samples were collected for 24 h using metabolic cages. Urine albumin was measured by immunoassay Albuwell M (Exocell Inc., Philadelphia, Pa.). Immuno-ELISA according to manufacturer's instructions was used to measure urine nephrin (Exocell Inc., Philadelphia, Pa.) and MCP-1 (Thermal Scientific, Waltham, Mass.). Kim-1 was measured using the E-90KIM Mouse ELISA Kit (Immunology Consultants Laboratory, Portland, Oreg.). Statistical analyses for serum and urine data was performed using a two-tailed Student's t-test.

[2] = tested on: adriamycin-induced nephropathy model; details: continually infused at disease onset; cited from earlier work
[3] = low dose 2.5 mg/kg p.o. QD, 4 weeks
[4] = lower dose 2.5 mg/kg p.o. QD, 4 weeks

In the case of CCCCCCCC/C(=C\CCCCCCCC(=O)O)[N+](=O)[O-] [CXA-10, 10-nitro-9(E)-octadec-9-enoic acid], the reduction in albuminuria ([1]; week 2 post-dosing) is reported as 49%, the reduction in albuminuria ([1]; week 4 post-dosing) is reported as 34% and the albuminuria ([1]; high dose 12.5 mg/kg p.o. QD) is reported as “had an effect initially but it was not sustained”. The “urinary MCP-1 excretion” value ([1]; high dose 12.5 mg/kg p.o. QD, 4 weeks) was “had no effect”, the plasma cholesterol [1, 3] was “reduced” and the “urinary MCP-1 excretion” value [1, 3] was “significantly reduced”. The albumin excretion [1, 4] was “markedly reduced”, the urinary nephrin levels [1, 4] was “markedly reduced” and the podocyte number [2] was “increase in podocyte number”.
